Reference: patent US20250074913A1, “PYRAZOLE DERIVATIVES AS STING AGONISTS” (Hoffmann-La Roche Inc., priority 2022, published 2025)

Test system: interferon regulatory factor (IRF) pathway in THP1-Dual™ cells
Assay: THP1-Dual reporter gene assay (Agonist_THP1_EC50)
Assay type: cell-based
Conditions: Homo sapiens, 20-24 hrs compound treatment, Lucia luciferase (IRF) readout
Text: This is the cellular reporter assay to evaluate compounds' agonism to interferon regulatory factor (IRF) pathway in THP1-Dual™ cells (InvivoGen, cat number thpd-nfis). THP1-Dual™ cells were derived from the human THP-1 monocyte cell line by stable integration lucia luciferase gene, a new secreted luciferase reporter gene, under the control of an ISG54 (interferon-stimulated gene) minimal promoter in conjunction with five interferon (IFN)-stimulated response elements. As a result, THP1-Dual™ cells allow the study of the IRF pathway, by assessing the activity of Lucia luciferase. Lucia luciferase protein is readily measurable in the cell culture supernatant when using QUANTI-Luc™ (InvivoGen, cat: rep-qlcg-500).
After 20-24 hrs compound treatment in THP1-Dual cells, the compounds' agonism to IRF pathway and cell toxicity were tested by measuring luminescence and OD 450 on an Envision plate reader.
On the day of experiment, 30 μL of test medium (RPMI 1640, 2 mM L-glutamine, 25 mM HEPES, […] heat-inactivated fetal bovine serum) was dispensed in a white 384-well plate (Grenier, cat: 781098) containing the serially diluted compounds (final 1% DMSO) transferred by the Echo550 machine. Then 30 μL of cell suspension (˜33,000 cells, 1.1×10^6 cells/mL) per well was added immediately by thermo multidrop combi dispenser for incubation 20-24 h at 37° C., […]. At the end of the incubation, 10 μL of cellular supernatant was transferred to proxiplate 384-plus plate for IRF detection, and then 10 μL of QUANTI-Luc™ Gold solution was added to the plate that proceeded with the measurement immediately. To detect cell viability, 30 μL of the CCK-8 working solution (Dojindo Molecular Technologies, cat: CK04-20) was added to the cell plate, which was Incubated for 2 hrs in the incubator to measure the absorbance at 450 nm using Envision.

Compound	EC50
Cc1cc2c(C(N)=O)nn(-c3nc(-c4c(O)c(C)nn4CCc4cccnc4)n[nH]3)c2cn1 [Example 47, 1-[3-[4-hydroxy-5-methyl-2-[2-(3-pyridyl)ethyl]pyrazol-3-yl]-1H-1,2,4-triazol-5-yl]-5-methyl-pyrazolo[3,4-c]pyridine-3-carboxamide]	33 nM
Cc1cc2c(C(N)=O)nn(-c3nc(-c4c(O)c(C)nn4CCc4ccccc4)nn3C)c2cn1 [Example 48, 1-[5-[4-hydroxy-5-methyl-2-(2-phenylethyl)pyrazol-3-yl]-2-methyl-1,2,4-triazol-3-yl]-5-methyl-pyrazolo[3,4-c]pyridine-3-carboxamide]	64 nM
CCCCn1nc(C)c(O)c1-c1nc(-n2nc(C(N)=O)c3cc(C)ncc32)n(C)n1 [Example 49, 1-[5-(2-butyl-4-hydroxy-5-methyl-pyrazol-3-yl)-2-methyl-1,2,4-triazol-3-yl]-5-methyl-pyrazolo[3,4-c]pyridine-3-carboxamide]	58 nM
COc1ccc(CCn2nc(C)c(O)c2-c2n[nH]c(-n3nc(C(N)=O)c4cc(C)ncc43)n2)cc1 [Example 50, 1-[3-[4-hydroxy-2-[2-(4-methoxyphenyl)ethyl]-5-methyl-pyrazol-3-yl]-1H-1,2,4-triazol-5-yl]-5-methyl-pyrazolo[3,4-c]pyridine-3-carboxamide]	25 nM
CC#CCCn1nc(C)c(O)c1-c1n[nH]c(-n2nc(C(N)=O)c3cc(C)ncc32)n1 [Example 51, 1-[3-(4-hydroxy-5-methyl-2-pent-3-ynyl-pyrazol-3-yl)-1H-1,2,4-triazol-5-yl]-5-methyl-pyrazolo[3,4-c]pyridine-3-carboxamide]	34 nM
COc1cccc(CCn2nc(C)c(O)c2-c2n[nH]c(-n3nc(C(N)=O)c4cc(C)ncc43)n2)c1 [Example 54, 1-[3-[4-hydroxy-2-[2-(3-methoxyphenyl)ethyl]-5-methyl-pyrazol-3-yl]-1H-1,2,4-triazol-5-yl]-5-methyl-pyrazolo[3,4-c]pyridine-3-carboxamide]	31 nM
Cc1cc2c(C(N)=O)nn(-c3nc(-c4c(O)c(C)nn4CCc4ccccc4F)n[nH]3)c2cn1 [Example 56, 1-[3-[2-[2-(2-fluorophenyl)ethyl]-4-hydroxy-5-methyl-pyrazol-3-yl]-1H-1,2,4-triazol-5-yl]-5-methyl-pyrazolo[3,4-c]pyridine-3-carboxamide]	13 nM
Cc1cn2c(C(N)=O)c(F)c(-c3nc(-c4c(O)c(C)nn4CCc4ccccc4)n[nH]3)c2cn1 [Example 57, 7-fluoro-8-[3-[4-hydroxy-5-methyl-2-(2-phenylethyl)pyrazol-3-yl]-1H-1,2,4-triazol-5-yl]-3-methyl-pyrrolo[1,2-a]pyrazine-6-carboxamide]	62 nM
Cc1cc2c(C(N)=O)nn(-c3nc(-c4c(O)c(C)nn4CCc4cccc(C#N)c4)n[nH]3)c2cn1 [Example 60, 1-[3-[2-[2-(3-cyanophenyl)ethyl]-4-hydroxy-5-methyl-pyrazol-3-yl]-1H-1,2,4-triazol-5-yl]-5-methyl-pyrazolo[3,4-c]pyridine-3-carboxamide]	23 nM
Cc1cc2c(C(N)=O)nn(-c3nc(-c4c(O)c(C)nn4CCc4ccc(C#N)cc4)n[nH]3)c2cn1 [Example 61, 1-[3-[2-[2-(4-cyanophenyl)ethyl]-4-hydroxy-5-methyl-pyrazol-3-yl]-1H-1,2,4-triazol-5-yl]-5-methyl-pyrazolo[3,4-c]pyridine-3-carboxamide]	47 nM
COC(=O)c1ccc(CCn2nc(C)c(O)c2-c2n[nH]c(-n3nc(C(N)=O)c4cc(C)ncc43)n2)cc1 [Example 62, Methyl 4-[2-[5-[5-(3-carbamoyl-5-methyl-pyrazolo[3,4-c]pyridin-1-yl)-1H-1,2,4-triazol-3-yl]-4-hydroxy-3-methyl-pyrazol-1-yl]ethyl]benzoate]	44 nM
Cc1cc2c(C(N)=O)nn(-c3nc(-c4c(O)c(C)nn4CC=C(F)F)n[nH]3)c2cn1 [Example 63, 1-(3-(1-(3,3-difluoroallyl)-4-hydroxy-3-methyl-1H-pyrazol-5-yl)-1H-1,2,4-triazol-5-yl)-5-methyl-1H-pyrazolo[3,4-c]pyridine-3-carboxamide]	26 nM
COCc1cccc(CCn2nc(C)c(O)c2-c2n[nH]c(-n3nc(C(N)=O)c4cc(C)ncc43)n2)c1 [Example 65, 1-[3-[4-hydroxy-2-[2-[3-(methoxymethyl)phenyl]ethyl]-5-methyl-pyrazol-3-yl]-11H-1,2,4-triazol-5-yl]-5-methyl-pyrazolo[3,4-c]pyridine-3-carboxamide]	17 nM
Cc1cc2c(C(N)=O)nn(-c3nc(-c4c(O)c(C)nn4CCC(F)F)n[nH]3)c2cn1 [Example 66, 1-(3-(1-(3,3-difluoropropyl)-4-hydroxy-3-methyl-1H-pyrazol-5-yl)-1H-1,2,4-triazol-5-yl)-5-methyl-1H-pyrazolo[3,4-c]pyridine-3-carboxamide]	27 nM
Cc1cc2c(C(N)=O)nn(-c3nc(-c4c(O)c(C)nn4CCc4ccc(CO)cc4)n[nH]3)c2cn1 [Example 68, 1-[3-[4-hydroxy-2-[2-[4-(hydroxymethyl)phenyl]ethyl]-5-methyl-pyrazol-3-yl]-1H-1,2,4-triazol-5-yl]-5-methyl-pyrazolo[3,4-c]pyridine-3-carboxamide]	27 nM
COc1ccc(CCn2nc(C)c(O)c2-c2n[nH]c(-c3c(F)c(C(N)=O)n4cc(C)ncc34)n2)cc1 [Example 69, 7-fluoro-8-[3-[4-hydroxy-2-[2-(4-methoxyphenyl)ethyl]-5-methyl-pyrazol-3-yl]-1H-1,2,4-triazol-5-yl]-3-methyl-pyrrolo[1,2-a]pyrazine-6-carboxamide]	93 nM
Cc1cn2c(C(N)=O)nc(-c3nc(-c4c(O)c(C)nn4CCc4ccc(CO)cc4)n[nH]3)c2cn1 [Example 71, 1-[3-[4-hydroxy-2-[2-[4-(hydroxymethyl)phenyl]ethyl]-5-methyl-pyrazol-3-yl]-1H-1,2,4-triazol-5-yl]-6-methyl-imidazo[1,5-a]pyrazine-3-carboxamide]	15 nM
Cc1cn2c(C(N)=O)nc(-c3nc(-c4c(O)c(C)nn4CCc4cccnc4)n[nH]3)c2cn1 [Example 72, 1-[3-[4-hydroxy-5-methyl-2-[2-(3-pyridyl)ethyl]pyrazol-3-yl]-1H-1,2,4-triazol-5-yl]-6-methyl-imidazo[1,5-a]pyrazine-3-carboxamide]	15 nM
Cc1cn2c(C(N)=O)c(F)c(-c3nc(-c4c(O)c(C)nn4CCc4cccnc4)n[nH]3)c2cn1 [Example 73, 7-fluoro-8-[3-[4-hydroxy-5-methyl-2-[2-(3-pyridyl)ethyl]pyrazol-3-yl]-1H-1,2,4-triazol-5-yl]-3-methyl-pyrrolo[1,2-a]pyrazine-6-carboxamide]	39 nM
Cc1cc2c(C(N)=O)nn(-c3coc(-c4c(O)c(C)nn4CCc4cccnc4)n3)c2cn1 [Example 74, 1-(2-(4-hydroxy-3-methyl-1-(2-(pyridin-3-yl)ethyl)-1H-pyrazol-5-yl)oxazol-4-yl)-5-methyl-1H-pyrazolo[3,4-c]pyridine-3-carboxamide]	170 nM
COc1cccc(CCn2nc(C)c(O)c2-c2nc(-n3nc(C(N)=O)c4cc(C)ncc43)co2)c1 [Example 75, 1-(2-(4-hydroxy-1-(3-methoxyphenethyl)-3-methyl-1H-pyrazol-5-yl)oxazol-4-yl)-5-methyl-1H-pyrazolo[3,4-c]pyridine-3-carboxamide]	49 nM
COc1ccc(CCn2nc(C)c(O)c2-c2nc(-n3nc(C(N)=O)c4cc(C)ncc43)co2)cc1 [Example 78, 1-(2-(4-hydroxy-1-(4-methoxyphenethyl)-3-methyl-1H-pyrazol-5-yl)oxazol-4-yl)-5-methyl-1H-pyrazolo[3,4-c]pyridine-3-carboxamide]	90 nM
COCC#CCCn1nc(C)c(O)c1-c1n[nH]c(-n2nc(C(N)=O)c3cc(C)ncc32)n1 [Example 81, 1-[3-[4-hydroxy-2-(5-methoxypent-3-ynyl)-5-methyl-pyrazol-3-yl]-1H-1,2,4-triazol-5-yl]-5-methyl-pyrazolo[3,4-c]pyridine-3-carboxamide]	65 nM
CCCn1nc(C)c(O)c1-c1nc(-c2nc(C(N)=O)n3cc(C)ncc23)co1 [Example 85, 1-[2-(4-hydroxy-5-methyl-2-propyl-pyrazol-3-yl)oxazol-4-yl]-6-methyl-imidazo[1,5-a]pyrazine-3-carboxamide]	49 nM
Cc1cn2c(C(N)=O)nc(-c3nc(-c4c(O)c(C)nn4CCc4ccc(CN5CCOCC5)cc4)n[nH]3)c2cn1 [Example 87, 1-[3-[4-hydroxy-5-methyl-2-[2-[4-(morpholinomethyl)phenyl]ethyl]pyrazol-3-yl]-1H-1,2,4-triazol-5-yl]-6-methyl-imidazo[1,5-a]pyrazine-3-carboxamide]	53 nM
Cc1cc2c(C(N)=O)nn(-c3coc(-c4c(O)c(C)nn4CCc4ccc(CN5CCOCC5)cc4)n3)c2cn1 [Example 88, 1-[2-[4-hydroxy-5-methyl-2-[2-[4-(morpholinomethyl)phenyl]ethyl]pyrazol-3-yl]oxazol-4-yl]-5-methyl-pyrazolo[3,4-c]pyridine-3-carboxamide]	179 nM
